Measured values published in ChEMBL document CHEMBL2150910, “Initial Optimization of a New Series of γ-Secretase Modulators Derived from a Triterpene Glycoside” (ACS Med Chem Lett, 2012).

Columns and labels:
[1] = Inhibition of gamma-secretase-mediated amyloid beta-42 production in diluted 2B7 conditioned media after 5 hrs
[2] = Inhibition of gamma-secretase-mediated amyloid beta-40 production in diluted 2B7 conditioned media after 5 hrs
[3] = Inhibition of gamma-secretase-mediated amyloid beta-38 production in diluted 2B7 conditioned media after 5 hrs
[4] = Inhibition of gamma-secretase-mediated amyloid beta-37 production in diluted 2B7 conditioned media after 5 hrs
[5] = Half life in CD1 mouse at 30 mg/kg, po; type: ADME, organism-based; parameters: dose 30 mg/kg, route oral; settings: in vivo
[6] = Inhibition of gamma-secretase assessed as ratio of amyloid beta-40 to amyloid beta-42 production in diluted 2B7 conditioned media after 5 hrs
[7] = Inhibition of gamma-secretase-mediated total amyloid beta production in diluted 2B7 conditioned media after 5 hrs
[8] = target: Gamma-secretase; test: Inhibition of gamma-secretase-mediated notch processing in human SUP-T1 cells after 1 hr by luminescent assay; type: cell-based
[9] = Half life in CD1 mouse at 1 mg/kg, iv; type: ADME, organism-based; parameters: dose 1 mg/kg, route intravenous; settings: in vivo
[10] = Volume of distribution in CD1 mouse at 1 mg/kg, iv; type: ADME, organism-based; parameters: dose 1 mg/kg, route intravenous; settings: in vivo
[11] = Clearance in CD1 mouse at 1 mg/kg, iv; type: ADME, organism-based; parameters: dose 1 mg/kg, route intravenous; settings: in vivo
[12] = Oral bioavailability in CD1 mouse at 30 mg/kg; type: ADME, organism-based; settings: in vivo
[13] = Ratio of drug level in brain to plasma in CD1 mouse at 30 mg/kg, po; type: ADME, organism-based; parameters: dose 30 mg/kg, route oral; settings: read-out: BPR
[14] = AUC in CD1 mouse at 30 mg/kg, po; type: ADME, organism-based; parameters: dose 30 mg/kg, route oral; settings: plasma
[15] = Drug level in CD1 mouse brain at 30 mg/kg, po after 4 hrs; type: ADME, organism-based; parameters: dose 30 mg/kg, route oral; settings: read-out: Drug uptake
[16] = Drug level in CD1 mouse brain at 30 mg/kg, po after 6 hrs; type: ADME, organism-based; parameters: dose 30 mg/kg, route oral; settings: read-out: Drug uptake
[17] = Drug level in CD1 mouse brain at 30 mg/kg, po after 8 hrs; type: ADME, organism-based; parameters: dose 30 mg/kg, route oral; settings: read-out: Drug uptake
[18] = Drug level in CD1 mouse brain at 30 mg/kg, po after 24 hrs; type: ADME, organism-based; parameters: dose 30 mg/kg, route oral; settings: read-out: Drug uptake
[19] = Plasma concentration in CD1 mouse at 30 mg/kg, po after 4 hrs; type: ADME, organism-based; parameters: dose 30 mg/kg, route oral
[20] = Plasma concentration in CD1 mouse at 30 mg/kg, po after 6 hrs; type: ADME, organism-based; parameters: dose 30 mg/kg, route oral
[21] = Plasma concentration in CD1 mouse at 30 mg/kg, po after 8 hrs; type: ADME, organism-based; parameters: dose 30 mg/kg, route oral
[22] = Plasma concentration in CD1 mouse at 30 mg/kg, po after 24 hrs; type: ADME, organism-based; parameters: dose 30 mg/kg, route oral
[23] = Metabolic stability in CD1 mouse liver microsomes assessed as compound remaining at 1 uM after 60 mins in absence of NADPH; type: ADME, Microsome; settings: read-out: Stability
[24] = Metabolic stability in CD1 mouse liver microsomes assessed as compound remaining at 1 uM after 60 mins in presence of NADPH; type: ADME, Microsome; settings: read-out: Stability
[25] = target: Gamma-secretase (Homo sapiens) (UniProt Q96BI3+Q9NZ42+Q8WW43+P49768+Q92542+P49810); test: Selectivity ratio of IC50 for gamma-secretase-mediated notch processing in human SUP-T1 cells to IC50 for gamma-secretase-mediated amyloid beta-42 production; type: cell-based
[26] = Dissociation constant, pKa of the compound; type: physicochemical
[27] = Inhibition of gamma-secretase-mediated amyloid beta-40 production in diluted 2B7 conditioned media at 0.8 uM after 5 hrs
[28] = Drug level in CD1 mouse brain at 100 mg/kg, po after 2 hrs; type: ADME, organism-based; parameters: dose 100 mg/kg, route oral; settings: read-out: Drug uptake
[29] = Drug level in CD1 mouse brain at 100 mg/kg, po after 4 hrs; type: ADME, organism-based; parameters: dose 100 mg/kg, route oral; settings: read-out: Drug uptake
[30] = Drug level in CD1 mouse brain at 100 mg/kg, po after 6 hrs; type: ADME, organism-based; parameters: dose 100 mg/kg, route oral; settings: read-out: Drug uptake
[31] = Inhibition of gamma-secretase-mediated amyloid beta-40 production in diluted 2B7 conditioned media at 20 uM after 5 hrs
[32] = Inhibition of gamma-secretase-mediated total amyloid beta production in diluted 2B7 conditioned media at 20 uM after 5 hrs
[33] = Plasma concentration in CD1 mouse at 100 mg/kg, po after 2 hrs; type: ADME, organism-based; parameters: dose 100 mg/kg, route oral
[34] = Plasma concentration in CD1 mouse at 100 mg/kg, po after 4 hrs; type: ADME, organism-based; parameters: dose 100 mg/kg, route oral
[35] = Plasma concentration in CD1 mouse at 100 mg/kg, po after 6 hrs; type: ADME, organism-based; parameters: dose 100 mg/kg, route oral

| SMILES | IC50 [1] | IC50 [2] | IC50 [3] | half-life [5] | Ratio [6] | IC50 [8] | half-life [9] | Vd [10] | clearance [11] | bioavailability [12] | Kp [13] | AUC [14] | remaining at 1 h, 1 µM [23] | remaining at 1 h, 1 µM [24] | Ratio IC50 [25] | pKa [26] | inhibition [27] | also measured |
| --- | --- | --- | --- | --- | --- | --- | --- | --- | --- | --- | --- | --- | --- | --- | --- | --- | --- | --- |
| CC(=O)O[C@@H]([C@H]1C[C@@H](C)C2=C(O1)[C@H](O)[C@@]1(C)[C@@H]3CC[C@H]4C(C)(C)[C@@H](O[C@@H]5OC[C@@H](O)[C@H](O)[C@H]5O)CC[C@@]45C[C@@]35CC[C@]21C)C(C)(C)O | 100 nM | 2700 nM | 61 nM |  |  |  |  |  |  |  |  |  |  |  |  |  |  | IC50 [4]: 39 nM |
| CC(=O)O[C@@H]([C@H]1C[C@@H](C)[C@H]2[C@H](O1)[C@H](O)[C@@]1(C)[C@@H]3CC[C@H]4C(C)(C)[C@@H](O[C@H]5CNCCO5)CC[C@@]45C[C@@]35CC[C@]21C)C(C)(C)O | 55 nM | 1400 nM | 80 nM | 3 h | 25 | > 4000 nM | 6.5 h | 12.1 L/kg | 51.7 mL/min/kg | 37% | 1.7 | 3620 ng·h/mL | 20% | 25% | > 70 | 7.7 |  | IC50 [7]: 2400 nM; concentration at 4 h [15]: 1340 ng/g; concentration at 6 h [16]: 1630 ng/g; concentration at 8 h [17]: 2260 ng/g; concentration at 24 h [18]: 116 ng/g; concentration at 4 h [19]: 1140 ng/mL; concentration at 6 h [20]: 840 ng/mL; concentration at 8 h [21]: 857 ng/mL; concentration at 24 h [22]: 31 ng/mL |
| CC(=O)O[C@@H]([C@H]1C[C@@H](C)[C@H]2[C@H](O1)[C@H](O)[C@@]1(C)[C@@H]3CC[C@H]4C(C)(C)[C@@H](O[C@H]5CN(CCN(C)C)CCO5)CC[C@@]45C[C@@]35CC[C@]21C)C(C)(C)O | 90 nM |  |  |  |  |  |  |  |  |  |  |  |  |  |  |  | 29% |  |
| CC(=O)O[C@@H]([C@H]1C[C@@H](C)[C@H]2[C@H](O1)[C@H](O)[C@@]1(C)[C@@H]3CC[C@H]4C(C)(C)[C@@H](O[C@H]5CN(C6COC6)CCO5)CC[C@@]45C[C@@]35CC[C@]21C)C(C)(C)O | 170 nM | 14100 nM | 300 nM | 2.3 h | 52 | > 20000 nM | 0.3 h | 0.6 L/kg | 55 mL/min/kg | 11% | 0.23 | 1010 ng·h/mL | 1% | 1% | > 70 | 4.6 |  | concentration at 2 h [28]: 103 ng/g; concentration at 4 h [29]: 185 ng/g; concentration at 6 h [30]: 163 ng/g; inhibition [31]: 41%; inhibition [32]: 44%; concentration at 2 h [33]: 279 ng/mL; concentration at 4 h [34]: 420 ng/mL; concentration at 6 h [35]: 453 ng/mL |
| CC(=O)O[C@@H]([C@H]1C[C@@H](C)[C@H]2[C@H](O1)[C@H](O)[C@@]1(C)[C@@H]3CC[C@H]4C(C)(C)[C@@H](O[C@H]5CN(CCN6CCCC6)CCO5)CC[C@@]45C[C@@]35CC[C@]21C)C(C)(C)O | 110 nM |  |  |  |  |  |  |  |  |  |  |  |  |  |  |  | 34% |  |
| CC(=O)O[C@@H]([C@H]1C[C@@H](C)[C@H]2[C@H](O1)[C@H](O)[C@@]1(C)[C@@H]3CC[C@H]4C(C)(C)[C@@H](O[C@@H]5OC[C@@H](O)[C@H](O)[C@H]5O)CC[C@@]45C[C@@]35CC[C@]21C)C(C)(C)O | 60 nM | 1000 nM | 84 nM |  |  |  |  |  |  |  |  |  |  |  |  |  |  |  |
